Experimental findings from ChEMBL document CHEMBL4622996, “Discovery of Vixotrigine: A Novel Use-Dependent Sodium Channel Blocker for the Treatment of Trigeminal Neuralgia” (ACS Med Chem Lett, 2020) are described below.

One data set addresses T1, Cytochrome P450 2C8 (Homo sapiens, UniProt P10632).
T1 sequence (P10632 whole entry): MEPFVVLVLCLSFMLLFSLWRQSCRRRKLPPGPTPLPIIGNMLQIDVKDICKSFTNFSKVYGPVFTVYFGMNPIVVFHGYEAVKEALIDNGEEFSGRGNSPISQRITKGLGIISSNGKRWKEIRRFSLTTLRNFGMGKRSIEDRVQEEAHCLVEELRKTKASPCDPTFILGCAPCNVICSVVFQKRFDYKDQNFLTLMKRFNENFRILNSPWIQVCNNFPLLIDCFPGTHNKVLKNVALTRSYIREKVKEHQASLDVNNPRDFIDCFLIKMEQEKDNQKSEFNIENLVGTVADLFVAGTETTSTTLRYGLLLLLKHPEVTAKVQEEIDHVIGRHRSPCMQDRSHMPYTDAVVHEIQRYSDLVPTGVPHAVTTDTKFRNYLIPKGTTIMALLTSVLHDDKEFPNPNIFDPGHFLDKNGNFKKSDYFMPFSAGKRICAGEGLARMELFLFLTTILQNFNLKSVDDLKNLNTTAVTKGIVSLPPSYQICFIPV
Nature of the data set: Inhibition of CYP2C8 (unknown origin). The data set is classed as ADME.

The target of the next data set is Cytochrome P450 2C19 (Homo sapiens, UniProt P33261). Nature of the data set: Inhibition of CYP2C19 (unknown origin). The data set is classed as ADME.
Sequence of Cytochrome P450 2C19 (P33261 whole entry): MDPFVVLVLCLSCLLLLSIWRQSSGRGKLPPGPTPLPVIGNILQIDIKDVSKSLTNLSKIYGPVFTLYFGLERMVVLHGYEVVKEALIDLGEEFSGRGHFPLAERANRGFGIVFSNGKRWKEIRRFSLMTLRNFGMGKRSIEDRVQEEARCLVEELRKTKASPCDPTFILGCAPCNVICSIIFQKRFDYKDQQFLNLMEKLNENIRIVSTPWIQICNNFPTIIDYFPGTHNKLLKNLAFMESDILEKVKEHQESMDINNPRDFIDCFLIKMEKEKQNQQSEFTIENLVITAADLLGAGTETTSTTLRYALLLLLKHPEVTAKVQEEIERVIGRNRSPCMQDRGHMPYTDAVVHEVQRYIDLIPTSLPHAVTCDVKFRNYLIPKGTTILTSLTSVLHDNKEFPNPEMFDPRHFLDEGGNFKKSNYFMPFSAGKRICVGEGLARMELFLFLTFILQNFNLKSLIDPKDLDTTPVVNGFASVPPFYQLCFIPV
Data set [1] is described as follows: Half life in monkey at 0.5 mg/kg, iv. The data set is classed as ADME, organism-based, Macaca mulatta. The following applies: rhesus monkey, in vivo.
Data set [2] concerns the target T2, Solute carrier family 22 member 2 (Homo sapiens, UniProt O15244).
T2 sequence (O15244 whole entry): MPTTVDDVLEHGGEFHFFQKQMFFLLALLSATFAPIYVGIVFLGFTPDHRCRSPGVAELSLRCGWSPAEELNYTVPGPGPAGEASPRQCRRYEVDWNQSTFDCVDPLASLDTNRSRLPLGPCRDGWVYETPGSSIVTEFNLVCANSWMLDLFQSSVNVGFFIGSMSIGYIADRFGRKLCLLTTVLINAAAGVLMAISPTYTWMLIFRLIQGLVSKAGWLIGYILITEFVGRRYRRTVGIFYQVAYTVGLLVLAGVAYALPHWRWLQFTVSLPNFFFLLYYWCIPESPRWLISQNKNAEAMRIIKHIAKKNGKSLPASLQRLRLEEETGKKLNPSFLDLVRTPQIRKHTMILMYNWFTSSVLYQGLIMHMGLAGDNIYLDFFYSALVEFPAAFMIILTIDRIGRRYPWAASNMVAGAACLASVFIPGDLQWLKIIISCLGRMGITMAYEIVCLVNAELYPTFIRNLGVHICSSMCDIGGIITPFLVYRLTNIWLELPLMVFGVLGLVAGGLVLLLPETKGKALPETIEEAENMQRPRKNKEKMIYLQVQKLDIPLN
In words: Inhibition of OCT2 (unknown origin).

Data set [3] can be described thus: Total blood clearance in monkey blood at 0.5 mg/kg, iv. The data set is classed as ADME, organism-based, Macaca mulatta. The following applies: rhesus monkey.

For the molecule `Cl.NC(=O)[C@@H]1CC[C@H](c2ccc(OCc3ccccc3F)cc2)N1` [RAXATRIGINE HYDROCHLORIDE], the IC50 at Cytochrome P450 2C8 is above 100 µM; at Cytochrome P450 2C19, 79 µM. In data set [1], this molecule gave a half-life of 5 h. Also, the “inhibition (INH)” value in data set [2] is “Not Active”. In data set [3], this molecule displayed a clearance of 5 mL/min/kg.
